Starred links: 1 amine or outer side, 2 acyl side, 3 side chain; linkers in the order of their positions; H or OH if unused. Positions of bridges follow the written chain, without caps; N, C: chain ends. Non-standard residues stand in square brackets, D forms with d. Residues, ends and D or L forms follow the SMILES beside them. Groups on a side chain read outwards from the residue. *: point of attachment. Chenodeoxycholyl = C[C@H](CCC(=O)*)[C@H]1CC[C@H]2[C@@H]3[C@H](O)C[C@@H]4C[C@H](O)CC[C@]4(C)[C@H]3CC[C@]12C; Ursodeoxycholyl = C[C@H](CCC(=O)*)[C@H]1CC[C@H]2[C@@H]3[C@@H](O)C[C@@H]4C[C@H](O)CC[C@]4(C)[C@H]3CC[C@]12C; Cholyl = C[C@H](CCC(=O)*)[C@H]1CC[C@H]2[C@@H]3[C@H](O)C[C@@H]4C[C@H](O)CC[C@]4(C)[C@H]3C[C@H](O)[C@]12C; Dehydrocholoyl = C[C@H](CCC(=O)*)[C@H]1CC[C@H]2[C@@H]3C(=O)C[C@@H]4CC(=O)CC[C@]4(C)[C@H]3CC(=O)[C@]12C; Deoxycholoyl = C[C@H](CCC(=O)*)[C@H]1CC[C@H]2[C@@H]3CC[C@@H]4C[C@H](O)CC[C@]4(C)[C@H]3C[C@H](O)[C@]12C; Lithocholoyl = C[C@H](CCC(=O)*)[C@H]1CC[C@H]2[C@@H]3CC[C@@H]4C[C@H](O)CC[C@]4(C)[C@H]3CC[C@]12C; X36 = C[C@H](CCC(=O)*)[C@H]1CC[C@H]2[C@@H]3CC[C@@H]4C[C@H](O)CC[C@]4(C)[C@H]3CC(O)[C@]12C; X27 = O=C(Cn1cc(C[C@H](N[*:1])C(=O)[*:2])c2ccccc21)Oc1ccccc1; Trp(1-CH2CO2Me) = COC(=O)Cn1cc(C[C@H](N)C(=O)O)c2ccccc21; Trp(1-CH2COOH) = N[C@@H](Cc1cn(CC(=O)O)c2ccccc12)C(=O)O; X37 = O=C(Cn1cc(C[C@H](N[*:1])C(=O)[*:2])c2ccccc21)OCCO; Pro(4R-Me) = C[C@H]1CN[C@H](C(=O)O)C1; Hyp = O=C(O)[C@@H]1C[C@@H](O)CN1; NMeNle = CCCC[C@H](NC)C(=O)O; NMeA = CN[C@@H](C)C(=O)O; Dab = NCC[C@H](N)C(=O)O; Dap = NC[C@H](N)C(=O)O
target: T1, PD-1/PD-L1 (Homo sapiens, UniProt Q9NZQ7); experiment: PD-1/PD-L1 Homogenous Time-Resolved Fluorescence (HTRF) binding assay; settings: HTRF IC50, PD-L1-His 10 nM, PD-1-Ig 20 nM
T1 construct: TVMV protease site (C); made in house; host or cells: HEK293T cells
T1 sequence (Q9NZQ7 18-239): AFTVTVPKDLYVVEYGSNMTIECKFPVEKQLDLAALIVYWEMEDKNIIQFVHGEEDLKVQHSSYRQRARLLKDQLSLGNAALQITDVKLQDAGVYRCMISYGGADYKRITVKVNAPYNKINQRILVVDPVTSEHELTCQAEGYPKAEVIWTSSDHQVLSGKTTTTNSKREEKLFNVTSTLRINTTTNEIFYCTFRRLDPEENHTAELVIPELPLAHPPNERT
Outline: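 Inhibitors pre-incubated 15 min with PD-L1-His (10 nM final) in dPBS, 0.1% BSA, 0.05% Tween-20, then 15 min with PD-1-Ig (20 nM final). Eu-cryptate anti-Ig (1 nM) and APC anti-His (20 nM) added, 30 min equilibration; HTRF 665/620 nm ratio. Human ECD proteins from HEK293T.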

`CCCC[C@H]1C(=O)N(C)[C@@H](CCCC)C(=O)N[C@@H](CC(C)C)C(=O)N[C@H](C(=O)NCC(N)=O)CSCC(=O)N[C@@H](Cc2ccc(O)cc2)C(=O)N(C)[C@@H](C)C(=O)N[C@@H](CC(N)=O)C(=O)N2CCC[C@H]2C(=O)N[C@@H](CNC(=O)CC[C@@H](C)[C@H]2CC[C@H]3[C@@H]4C(=O)C[C@@H]5CC(=O)CC[C@]5(C)[C@H]4CC(=O)[C@]23C)C(=O)N[C@@H](CC(C)C)C(=O)N2C[C@H](O)C[C@H]2C(=O)N[C@@H](Cc2c[nH]c3ccccc23)C(=O)N[C@@H](CCNC(=O)CC[C@@H](C)[C@H]2CC[C@H]3[C@@H]4C(=O)C[C@@H]5CC(=O)CC[C@]5(C)[C@H]4CC(=O)[C@]23C)C(=O)N[C@@H](Cc2cn(CC(=O)Oc3ccccc3)c3ccccc23)C(=O)N1C` [Example 2015] ({CH2CO}-Y[NMeA]NP[Dap](Dehydrocholoyl)L[Hyp]W[Dab](Dehydrocholoyl)[X27][NMeNle][NMeNle]LCG-NH2; thioether N-14) gave an IC50 of 20 nM.

same assay, conditions: PD-L1-His 10 nM, PD-1-Ig 20 nM; read-out: HTRF IC50

Going from `CCCC[C@H]1C(=O)N(C)[C@@H](CCCC)C(=O)N[C@@H](CC(C)C)C(=O)N[C@H](C(=O)NCC(N)=O)CSCC(=O)N[C@@H](Cc2ccc(O)cc2)C(=O)N(C)[C@@H](C)C(=O)N[C@@H](CC(N)=O)C(=O)N2CCC[C@H]2C(=O)N[C@@H](CNC(=O)CC[C@@H](C)[C@H]2CC[C@H]3[C@@H]4CC[C@@H]5C[C@H](O)CC[C@]5(C)[C@H]4C[C@H](O)[C@]23C)C(=O)N[C@@H](CC(C)C)C(=O)N2C[C@H](O)C[C@H]2C(=O)N[C@@H](Cc2c[nH]c3ccccc23)C(=O)N[C@@H](CCNC(=O)CC[C@@H](C)[C@H]2CC[C@H]3[C@@H]4[C@H](O)C[C@@H]5C[C@H](O)CC[C@]5(C)[C@H]4CC[C@]23C)C(=O)N[C@@H](Cc2cn(CC(=O)O)c3ccccc23)C(=O)N1C` [Example 1002] ({CH2CO}-Y[NMeA]NP[Dap](Deoxycholoyl)L[Hyp]W[Dab](Chenodeoxycholyl)[Trp(1-CH2COOH)][NMeNle][NMeNle]LCG-NH2; thioether N-14) to `CCCC[C@H]1C(=O)N(C)[C@@H](CCCC)C(=O)N[C@@H](CC(C)C)C(=O)N[C@H](C(=O)NCC(N)=O)CSCC(=O)N[C@@H](Cc2ccc(O)cc2)C(=O)N(C)[C@@H](C)C(=O)N[C@@H](CC(N)=O)C(=O)N2CCC[C@H]2C(=O)N[C@@H](CNC(=O)CC[C@@H](C)[C@H]2CC[C@H]3[C@@H]4[C@@H](O)C[C@@H]5C[C@H](O)CC[C@]5(C)[C@H]4CC[C@]23C)C(=O)N[C@@H](CC(C)C)C(=O)N2C[C@H](O)C[C@H]2C(=O)N[C@@H](Cc2c[nH]c3ccccc23)C(=O)N[C@@H](CCNC(=O)CC[C@@H](C)[C@H]2CC[C@H]3[C@@H]4[C@@H](O)C[C@@H]5C[C@H](O)CC[C@]5(C)[C@H]4CC[C@]23C)C(=O)N[C@@H](Cc2cn(CC(=O)OC)c3ccccc23)C(=O)N1C` [Example 1006] ({CH2CO}-Y[NMeA]NP[Dap](Ursodeoxycholyl)L[Hyp]W[Dab](Ursodeoxycholyl)[Trp(1-CH2CO2Me)][NMeNle][NMeNle]LCG-NH2; thioether N-14), the IC50 rises from 11 nM to > 10000 nM.

`CCCC[C@H]1C(=O)N(C)[C@@H](CCCC)C(=O)N[C@@H](CC(C)C)C(=O)N[C@H](C(=O)NCC(N)=O)CSCC(=O)N[C@@H](Cc2ccc(O)cc2)C(=O)N(C)[C@@H](C)C(=O)N[C@@H](CC(N)=O)C(=O)N2CCC[C@H]2C(=O)N[C@@H](CNC(=O)CC[C@@H](C)[C@H]2CC[C@H]3[C@@H]4CC[C@@H]5C[C@H](O)CC[C@]5(C)[C@H]4CC[C@]23C)C(=O)N[C@@H](CC(C)C)C(=O)N2C[C@H](O)C[C@H]2C(=O)N[C@@H](Cc2c[nH]c3ccccc23)C(=O)N[C@@H](CCNC(=O)CC[C@@H](C)[C@H]2CC[C@H]3[C@@H]4CC[C@@H]5C[C@H](O)CC[C@]5(C)[C@H]4CC[C@]23C)C(=O)N[C@@H](Cc2cn(CC(=O)OC)c3ccccc23)C(=O)N1C` [Example 1004] ({CH2CO}-Y[NMeA]NP[Dap](Lithocholoyl)L[Hyp]W[Dab](Lithocholoyl)[Trp(1-CH2CO2Me)][NMeNle][NMeNle]LCG-NH2; thioether N-14) and `CCCC[C@H]1C(=O)N(C)[C@@H](CCCC)C(=O)N[C@@H](CC(C)C)C(=O)N[C@H](C(=O)NCC(N)=O)CSCC(=O)N[C@@H](Cc2ccc(O)cc2)C(=O)N(C)[C@@H](C)C(=O)N[C@@H](CC(N)=O)C(=O)N2CCC[C@H]2C(=O)N[C@@H](CNC(=O)CC[C@@H](C)[C@H]2CC[C@H]3[C@@H]4CC[C@@H]5C[C@H](O)CC[C@]5(C)[C@H]4C[C@H](O)[C@]23C)C(=O)N[C@@H](CC(C)C)C(=O)N2C[C@H](O)C[C@H]2C(=O)N[C@@H](Cc2c[nH]c3ccccc23)C(=O)N[C@@H](CCNC(=O)CC[C@@H](C)[C@H]2CC[C@H]3[C@@H]4CC[C@@H]5C[C@H](O)CC[C@]5(C)[C@H]4CC(O)[C@]23C)C(=O)N[C@@H](Cc2cn(CC(=O)OC)c3ccccc23)C(=O)N1C` (stereo partly drawn) [Example 1003] ({CH2CO}-Y[NMeA]NP[Dap](Deoxycholoyl)L[Hyp]W[Dab](X36)[Trp(1-CH2CO2Me)][NMeNle][NMeNle]LCG-NH2; thioether N-14) cannot be ordered by IC50: > 10000 nM for the first, > 10000 nM for the second.

`CCCC[C@H]1C(=O)N(C)[C@@H](CCCC)C(=O)N[C@@H](CC(C)C)C(=O)N[C@H](C(=O)NCC(N)=O)CSCC(=O)N[C@@H](Cc2ccc(O)cc2)C(=O)N(C)[C@@H](C)C(=O)N[C@@H](CC(N)=O)C(=O)N2CCC[C@H]2C(=O)N[C@@H](CNC(=O)CNC(=O)CC[C@@H](C)[C@H]2CC[C@H]3[C@@H]4[C@H](O)C[C@@H]5C[C@H](O)CC[C@]5(C)[C@H]4C[C@H](O)[C@]23C)C(=O)N[C@@H](CC(C)C)C(=O)N2C[C@H](C)C[C@H]2C(=O)N[C@@H](Cc2c[nH]c3ccccc23)C(=O)N[C@@H](CCNC(=O)CNC(=O)CC[C@@H](C)[C@H]2CC[C@H]3[C@@H]4[C@H](O)C[C@@H]5C[C@H](O)CC[C@]5(C)[C@H]4C[C@H](O)[C@]23C)C(=O)N[C@@H](Cc2cn(CC(=O)OCCO)c3ccccc23)C(=O)N1C` [Example 2035] ({CH2CO}-Y[NMeA]NP[Dap]([Gly-Cholyl])L[Pro(4R-Me)]W[Dab]([Gly-Cholyl])[X37][NMeNle][NMeNle]LCG-NH2; thioether N-14) showed an IC50 of 830 nM.

Reference: patent publication US20230183292A1, “IMMUNOMODULATORS” (priority 2020, published 2023)
